Patent US9155714B2, “Compositions comprising an aromatic alcohol and a TRPV-1 antagonist, and uses thereof” (JOHNSON & JOHNSON CONSUMER INC., priority 2013, dated 2015)
Where “and” joins values, the source holds several entries; their conditions need not be identical. Equal values may be shown once.

Columns and labels:
Experiment in all cases: Calcium Flux Test, activity as TRPV-1 agonist
Assay type in all cases: cell-based
[1] = target: T1, human vanilloid receptor-1 (TRPV-1) (Homo sapiens, UniProt Q8NER1); parameters: key: **: Statistically significant; n/s: Not statistically significant
T1 construct: host or cells: HEK293
Experimental: (§1) The Calcium Flux Test is performed in the following manner: Recombinant HEK293 cells expressing human vanilloid receptor-1 (TRPV-1; accession number AF196175, EMD Millipore, Billerica, Mass.) are grown in D-MEM/F-12 media (Life Technologies, Grand Island, N.Y.) supplemented with 10% fetal bovine serum, 1% non essential amino acids and 400 μg/mL Geneticin (Gibco, Life Technologies). Cells are plated at a concentration of 15,000 cells per well on poly-D-lysine-coated 384 well plates and incubated overnight at 5% CO2 and 37° C. After incubation, culture media is removed from the wells and replaced with 50 μL per well of Fluo-8 No Wash dye solution (#36315, AAT Bioquest, Sunnyvale, Calif.). The Fluo-8 dye solution is prepared by mixing 20 uL of Fluo-8 NW with 30 mL of 0.33× Pluronic® F127 Plus (BASF of Ludwigshafen, Germany) in assay buffer (1×HBSS+2% of HEPES). Fluo-8 dye is incubated for 30 minutes at room temperature. Intracellular calcium (Ca^2+) flux is monitored upon exposure to aromatic alcohol in DMSO vehicle by measuring fluorescence intensity at Ex/Em 490/525 on a Functional Drug Screening System (FDSS; Hamamatsu, […]). Measurements are taken every second for a period of 4 minutes. […] Statistical differences are obtained using One Way ANOVA with Tukey Post-hoc test; statistical significance is defined as P≦0.05.
(§2) Phenoxyethanol was tested at a series of concentrations in DMSO for activity as a TRPV-1 agonist according to the Calcium Flux Test described above. Capsaicin was used as a positive control.
(§3) Maximum RFU values for treatment with phenoxyethanol or capsaisin were compared to the Maximum RFU for a DMSO vehicle alone. Concentrations of phenoxyethanol and capsaicin are reported in milimolar (mM) and nanomolar (nM), respectively.
(§4) Benzyl alcohol and sodium bicarbonate were tested using the Calcium Flux Test.
(§5) Benzyl alcohol and phenethyl alcohol were tested at a series of concentrations in DMSO for activity as a TRPV-1 agonist as described in Example 1. Concentrations of benzyl alcohol and phenethyl alcohol are reported in units of % w/v.

[2] = target: T1, human vanilloid receptor-1 (TRPV-1)
Experimental: as §1, §2, §3, §4, §5

[3] = target: T1, human vanilloid receptor-1 (TRPV-1); parameters: key: **: statistically significant; n/s: not statistically significant
Experimental: as §1, §2, §3, §4, §5

T1 sequence (Q8NER1 whole entry): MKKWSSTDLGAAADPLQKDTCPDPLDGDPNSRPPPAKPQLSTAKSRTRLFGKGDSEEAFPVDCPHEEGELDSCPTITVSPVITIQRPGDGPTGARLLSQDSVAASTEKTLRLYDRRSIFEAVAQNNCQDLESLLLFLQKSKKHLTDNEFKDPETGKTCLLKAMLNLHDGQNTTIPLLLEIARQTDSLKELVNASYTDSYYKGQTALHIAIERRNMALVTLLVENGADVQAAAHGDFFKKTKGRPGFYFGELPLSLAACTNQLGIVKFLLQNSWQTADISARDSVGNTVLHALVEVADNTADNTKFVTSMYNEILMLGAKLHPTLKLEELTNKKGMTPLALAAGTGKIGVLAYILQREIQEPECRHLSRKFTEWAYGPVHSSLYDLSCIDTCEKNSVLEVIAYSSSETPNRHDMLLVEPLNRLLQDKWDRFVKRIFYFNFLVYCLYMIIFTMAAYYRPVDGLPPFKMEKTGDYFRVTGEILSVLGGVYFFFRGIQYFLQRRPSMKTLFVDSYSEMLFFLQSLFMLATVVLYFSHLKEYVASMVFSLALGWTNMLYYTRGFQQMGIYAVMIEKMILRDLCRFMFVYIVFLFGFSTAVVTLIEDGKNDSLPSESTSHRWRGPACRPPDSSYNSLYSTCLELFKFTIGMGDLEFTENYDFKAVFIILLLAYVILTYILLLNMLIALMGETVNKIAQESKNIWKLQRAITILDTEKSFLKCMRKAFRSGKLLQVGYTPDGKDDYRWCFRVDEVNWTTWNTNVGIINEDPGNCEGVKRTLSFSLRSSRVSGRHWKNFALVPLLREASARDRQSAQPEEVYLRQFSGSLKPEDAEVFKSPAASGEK

In the case of OCCOc1ccccc1 [Phenoxyethanol, 2-phenoxy-1-ethanol], the “P < 0.05 Compared to Vehicle” value ([1]; phenoxyethanol 0.5 mM) is reported as “n/s”, the “P < 0.05 Compared to Vehicle” value ([1]; phenoxyethanol 0.75 mM) is reported as “n/s” and the “P < 0.05 Compared to Vehicle” value ([1]; phenoxyethanol 1 mM) is reported as “**”. The “P < 0.05 Compared to Vehicle” value ([1]; phenoxyethanol 1.5 mM) was “**”, the “P < 0.05 Compared to Vehicle” value ([1]; phenoxyethanol 2 mM) was “**” and the “P < 0.05 Compared to Vehicle” value ([1]; phenoxyethanol 2.5 mM) was “**”. The “P < 0.05 Compared to Vehicle” value ([1]; phenoxyethanol 3 mM) was “**”, the “P < 0.05 Compared to Vehicle” value ([1]; phenoxyethanol 3.5 mM) was “**” and the “P < 0.05 Compared to Vehicle” value ([1]; phenoxyethanol 4 mM) was “**”. For the same molecule, the “increase in Maximum RFU values compared to the vehicle alone” value [2] was “thirty to forty-fold”, the “intracellular calcium flux in TRPV-1-transfected HEK cells (result in words)” value [2] was “dose dependent increases” and the “Maximum RFU (mean ± SD)” value ([2]; phenoxyethanol 0.5 mM alone) was 96.96 ± 61.20 RFU. For the same molecule, the “Maximum RFU (mean ± SD)” value ([2]; phenoxyethanol 0.75 mM alone) was 124.81 ± 37.58 RFU, the “Maximum RFU (mean ± SD)” value ([2]; phenoxyethanol 1 mM alone) was 200.28 ± 76.93 RFU and the “Maximum RFU (mean ± SD)” value ([2]; phenoxyethanol 1.5 mM alone) was 304.41 ± 70.10 RFU. The “Maximum RFU (mean ± SD)” value ([2]; phenoxyethanol 2.5 mM alone) was 363.73 ± 44.11 RFU, the “Maximum RFU (mean ± SD)” value ([2]; phenoxyethanol 3 mM alone) was 401.68 ± 26.58 RFU and 441.76 ± 36.68 RFU and 224.26 ± 42.60 RFU and 257.93 RFU and the “Maximum RFU (mean ± SD)” value ([2]; phenoxyethanol 3.5 mM alone) was 404.21 ± 42.32 RFU. The “Maximum RFU (mean ± SD)” value ([2]; phenoxyethanol 4 mM alone) was 453.25 ± 34.18 RFU.
For COc1cc(CNC(=O)CCCC/C=C/C(C)C)ccc1O [Capsaicin, capsaicin], the “intracellular calcium flux in TRPV-1-transfected HEK cells (result in words)” value [2] was “dose dependent increases”, the “Maximum RFU (mean ± SD)” value ([2]; capsaicin 0.0381 nM alone) was 10.19 ± 2.94 RFU and the “Maximum RFU (mean ± SD)” value ([2]; capsaicin 0.1526 nM alone) was 29.34 ± 8.18 RFU. For the same molecule, the “Maximum RFU (mean ± SD)” value ([2]; capsaicin 0.6104 nM alone) was 121.32 ± 46.41 RFU, the “Maximum RFU (mean ± SD)” value ([2]; capsaicin 2 nM alone) was 253.47 ± 24.63 RFU and the “Maximum RFU (mean ± SD)” value ([2]; capsaicin 10 nM alone) was 348.17 ± 5.56 RFU. For the same molecule, the “Maximum RFU (mean ± SD)” value ([2]; capsaicin 39 nM alone) was 405.53 ± 11.25 RFU, the “Maximum RFU (mean ± SD)” value ([2]; capsaicin 100 nM alone (0 antagonist)) was 647.05 ± 33.18 RFU and 849.62 ± 7.02 RFU and 1006.91 ± 74.51 RFU and the “Maximum RFU (mean ± SD)” value ([2]; capsaicin 156 nM alone) was 491.07 ± 21.10 RFU. For the same molecule, the “Maximum RFU (mean ± SD)” value ([2]; capsaicin 300 nM alone (0 nM antagonist)) was 860.95 ± 33.14 RFU and 875.05 ± 55.11 RFU, the “Maximum RFU (mean ± SD)” value ([2]; capsaicin 625 nM alone) was 604.13 ± 32.46 RFU and the “Maximum RFU (mean ± SD)” value ([2]; capsaicin 2500 nM alone) was 617.87 ± 34.14 RFU. For the same molecule, the “Maximum RFU (mean ± SD)” value ([2]; capsaicin 10000 nM alone) was 698.83 ± 30.57 RFU, the “P < 0.05 Compared to Vehicle” value ([3]; capsaicin 0.0381 nM) was “n/s” and the “P < 0.05 Compared to Vehicle” value ([3]; capsaicin 0.1526 nM) was “n/s”. The “P < 0.05 Compared to Vehicle” value ([3]; capsaicin 0.6104 nM) was “**”, the “P < 0.05 Compared to Vehicle” value ([3]; capsaicin 2 nM) was “**” and the “P < 0.05 Compared to Vehicle” value ([3]; capsaicin 10 nM) was “**”. For the same molecule, the “P < 0.05 Compared to Vehicle” value ([3]; capsaicin 39 nM) was “**”, the “P < 0.05 Compared to Vehicle” value ([3]; capsaicin 156 nM) was “**” and the “P < 0.05 Compared to Vehicle” value ([3]; capsaicin 625 nM) was “**”. The “P < 0.05 Compared to Vehicle” value ([3]; capsaicin 2500 nM) was “**” and the “P < 0.05 Compared to Vehicle” value ([3]; capsaicin 10000 nM) was “**”.
